# Measured values: patent publication US20260250318A1, “COMPOSITIONS AND METHODS FOR CROSSING THE BLOOD BRAIN BARRIER” (VOYAGER THERAPEUTICS, INC., priority 2022, published 2026)
# What was measured:
# [1] = system: brain; assay: Matured TTM-001 and TTM-002 variants, NGS enrichment in mouse brain; type: in vivo, mice; settings: relative to AAV9 control
# [2] = system: brains, heart, liver, muscle, and DRG of the NHPs; assay: Maturation of TTM-001 and TTM-002 capsids, NGS enrichment in NHP tissues; type: in vivo; settings: relative to AAV9 control
# In short: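 Variants carry mutations within and flanking the loop IV peptide insert: positions 450–466 were triplet-randomized, while positions 449–466 received low-frequency point mutations. The combined pool went into two NHPs, and each peptide was scored by NGS enrichment ratio against AAV9.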
# [3] = NGS fold-enrichment, brain of mice
# [4] = NGS fold-enrichment, mouse brain
# [5] = NGS fold-enrichment of RNA, NHP brain
# [6] = NGS fold-enrichment, DRG of NHPs
# [7] = NGS fold-enrichment, NHP liver DNA
# [8] = NGS fold-enrichment, NHP liver RNA
# [9] = NGS fold-enrichment, NHP muscle
# [10] = NGS fold-enrichment, RNA, brain of NHPs
# [11] = NGS fold-enrichment, heart of NHPs
# [12] = NGS fold-enrichment, liver DNA of NHPs
# [13] = NGS fold-enrichment, liver RNA of NHPs
# [14] = NGS fold-enrichment, muscle of NHPs
# [15] = NGS fold-enrichment of matured AAV capsid variants, NHP brain, RNA
Sequence,"Fold Enrichment relative to AAV9, Brain (Mouse) [1, 3] [fold]","Fold Enrichment relative to AAV9, Brain (Mouse) [1, 4] [fold]","Fold Enrichment relative to AAV9, Brain (NHP) [2, 5] [fold]","Fold Enrichment relative to AAV9, DRG (NHP) [2, 6] [fold]","Fold Enrichment relative to AAV9, DRG (NHP) ([2]; NGS fold-enrichment, NHP DRG) [fold]","Fold Enrichment relative to AAV9, Heart (NHP) ([2]; NGS fold-enrichment, NHP heart) [fold]","Fold Enrichment relative to AAV9, Liver DNA (NHP) [2, 7] [fold]","Fold Enrichment relative to AAV9, Liver RNA (NHP) [2, 8] [fold]","Fold Enrichment relative to AAV9, Muscle (NHP) [2, 9] [fold]","Fold Enrichment relative to AAV9, Brain (NHP) [2, 10] [fold]","Fold Enrichment relative to AAV9, Heart (NHP) [2, 11] [fold]","Fold Enrichment relative to AAV9, Liver DNA (NHP) [2, 12] [fold]","Fold Enrichment relative to AAV9, Liver RNA (NHP) [2, 13] [fold]","Fold Enrichment relative to AAV9, Muscle (NHP) [2, 14] [fold]","Fold Enrichment relative to AAV9, Brain (Mouse) ([1]; mouse brain) [fold]","Fold Enrichment relative to AAV9, Brain (NHP) [2, 15] [fold]","Fold Enrichment relative to AAV9, DRG (NHP) ([2]; NHP DRG) [fold]","Fold Enrichment relative to AAV9, Heart (NHP) ([2]; NHP heart) [fold]","Fold Enrichment relative to AAV9, Liver DNA (NHP) ([2]; NHP liver, DNA) [fold]","Fold Enrichment relative to AAV9, Liver RNA (NHP) ([2]; NHP liver, RNA) [fold]",also measured
KTSYGNGSPHSKAQNQQT,105.894,105.894,105.937,0.000,0.000,0.000,0.114,0.000,0.000,105.937,0.000,0.114,0.000,0.000,,,,,,,
KAINGYDSPHKSGQKQQT,,13.057,83.803,,0.041,9.491,0.150,0.031,0.000,,,,,,,,,,,,
KNINGGGSPHSKAQNQQT,75.913,75.913,83.083,0.000,0.000,0.042,0.000,0.000,0.000,83.083,0.042,0.000,0.000,0.000,,,,,,,
KTINGSGSPHSKAPSLQT,,,,,,,,,,,,,,,70.363,52.137,0.041,1.614,0.222,0.902,"Fold Enrichment relative to AAV9, Muscle (NHP) ([2]; NHP muscle): 0.002 fold"
KTINGSGSPHSKALHQHT,68.196,68.196,77.502,0.000,0.000,0.052,0.188,0.000,0.041,77.502,0.052,0.188,0.000,0.041,,,,,,,
KTIKGNDSPHKSVQNQQT,,8.603,85.986,,0.000,0.135,0.000,0.263,0.000,,,,,,,,,,,,
KTEKASGSPHSKAQNQQT,90.390,90.390,80.285,0.000,0.000,0.041,0.261,0.000,0.000,80.285,0.041,0.261,0.000,0.000,,,,,,,
KTDAGHDSPHKSGQNQQT,,18.107,88.924,,0.000,0.013,0.070,1.076,0.000,,,,,,,,,,,,
KTTNGSGSPHSKAHNQLT,65.505,,,0.000,,,,,,69.062,0.000,0.000,0.708,0.000,,,,,,,
KTELGSGSPHSKAQNQQT,,,,,,,,,,,,,,,87.314,52.232,0.000,0.007,0.088,0.532,"Fold Enrichment relative to AAV9, Muscle (NHP) ([2]; NHP muscle): 0.006 fold"
KTDVNSGSPHSKAQNQQT,,,,,,,,,,,,,,,66.127,57.593,0.000,0.000,0.331,0.000,"Fold Enrichment relative to AAV9, Muscle (NHP) ([2]; NHP muscle): 0.000 fold"
KAETGSGSPHSKAQNQQT,,,,,,,,,,,,,,,132.940,52.219,0.000,0.047,0.188,0.009,"Fold Enrichment relative to AAV9, Muscle (NHP) ([2]; NHP muscle): 0.581 fold"
KTINGSGSPHSKAQKFET,65.588,65.588,75.788,0.000,0.000,0.000,0.093,0.108,0.028,75.788,0.000,0.093,0.108,0.028,,,,,,,
KSINGGGSPHSKAQYQQT,,,,,,,,,,,,,,,65.952,54.612,0.000,0.000,0.010,0.105,"Fold Enrichment relative to AAV9, Muscle (NHP) ([2]; NHP muscle): 0.000 fold"
